Experimental data published in PMC3191909 (Journal of biomolecular screening, 2009).
Like-named read-outs stand apart in the source and are kept apart here.

Experiments:
[1] = target: T1, AChBP (Ac) (Aplysia californica, UniProt Q8WSF8); assay: [3H]epibatidine radioligand competition SPA, Ac AChBP; format: binding
[2] = target: T1, AChBP (Ac); assay: biochemical; format: binding
[3] = target: α-cobratoxin (Naja kaouthia, UniProt P01391); design: species or system mice; conditions: mouse, in vivo, iv
Sequence of α-cobratoxin (P01391 whole entry, looked up, the tested form may be a part): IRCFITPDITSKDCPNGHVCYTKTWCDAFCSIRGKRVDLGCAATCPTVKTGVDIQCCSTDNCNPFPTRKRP

[4] = target: (UniProt Z9ZW91H0F0); assay: [3H]epibatidine radioligand competition SPA, Bt AChBP; format: binding, Bolinus truncates
Sequence of (UniProt Z9ZW91H0F0) (Z9ZW91H0F0 1-203): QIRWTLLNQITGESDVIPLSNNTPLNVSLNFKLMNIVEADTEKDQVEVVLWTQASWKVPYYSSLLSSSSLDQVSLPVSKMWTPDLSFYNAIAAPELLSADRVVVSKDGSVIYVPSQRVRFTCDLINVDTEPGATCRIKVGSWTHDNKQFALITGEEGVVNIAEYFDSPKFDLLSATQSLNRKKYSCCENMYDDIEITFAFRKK

[5] = target: T2, AChBP (Ls) (Lymnaea stagnalis, UniProt P58154); format: binding; conditions: read-out: Kd, [125I]α-Bungarotoxin
T2 sequence (P58154 20-229): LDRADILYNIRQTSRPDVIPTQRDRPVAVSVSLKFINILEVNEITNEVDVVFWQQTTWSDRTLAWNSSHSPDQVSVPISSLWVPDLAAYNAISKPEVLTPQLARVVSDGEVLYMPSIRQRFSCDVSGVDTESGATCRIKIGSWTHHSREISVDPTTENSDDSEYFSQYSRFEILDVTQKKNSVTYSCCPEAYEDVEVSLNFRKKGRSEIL

[6] = target: T2, AChBP (Ls); format: binding; conditions: read-out: Kd, [3H]Epibatidine

c1ccc2c(CN3CCN(Cc4c[nH]c5ccccc45)CC3)c[nH]c2c1 [NSC42258]
Kd [1]: 1150 nM | Kd [2]: 2910 nM | effect on survival time of mice (in words) [3]: can prolong the survival time

COc1cc2c3cc1Oc1cc(ccc1O)C[C@@H]1c4c(cc(OC)c(O)c4Oc4ccc(cc4)C[C@@H]3N(C)CC2)CC[N+]1(C)C [NSC36387, d-tubocurarine, reference compound]
Kd [4]: 37.5 nM

COc1cc2c(cc1OC)C13CCN4CC5=CCOC(CC(=O)O)C(C5CC41)C3N2 (centres unmarked) [NSC121865]
Kd [5]: 75.9 nM | Kd [6]: 112 nM

N#Cc1ccc(/C=C/C(=O)O)cc1 [NSC134754]
Kd [5]: 404 nM | Kd [6]: 793 nM
